Laboratory results reported in the NIST ThermoML archive (doi:10.1016/j.tca.2014.10.002).
Several values for one entry are separate records, joined by “and”; a condition that tells them apart may be missing. Equal entries are not always repeated. Numbers after ± are expanded uncertainties.

How the values were obtained:
[1] = molar heat capacity at constant pressure; settings: 101.33 kPa, Large sample (1 g) DSC
[2] = Molar enthalpy of transition or fusion; settings: Crystal; DSC
[3] = Crystal; DTA

Q: Which results are given for `OC1CCCC1` [cyclopentanol]?
A: molar heat capacity at constant pressure ([1]; 265.06 K, Liquid): 157.6 ± 2.7 J/K/mol; molar heat capacity at constant pressure ([1]; 270 K, Liquid): 160.7 ± 2.8 J/K/mol; molar heat capacity at constant pressure ([1]; 275 K, Liquid): 164.2 ± 2.8 J/K/mol; molar heat capacity at constant pressure ([1]; 280 K, Liquid): 167.8 ± 2.9 J/K/mol and 167.9 ± 2.9 J/K/mol; molar heat capacity at constant pressure ([1]; 285 K, Liquid): 171.6 ± 3 J/K/mol and 171.7 ± 3 J/K/mol; molar heat capacity at constant pressure ([1]; 290 K, Liquid): 175.7 ± 3 J/K/mol and 175.9 ± 3 J/K/mol; molar heat capacity at constant pressure ([1]; 295 K, Liquid): 180 ± 3.1 J/K/mol and 180.1 ± 3.1 J/K/mol; molar heat capacity at constant pressure ([1]; 300 K, Liquid): 184.3 ± 3.2 J/K/mol and 184.4 ± 3.2 J/K/mol; molar heat capacity at constant pressure ([1]; 305 K, Liquid): 188.6 ± 3.3 J/K/mol and 188.7 ± 3.3 J/K/mol; molar heat capacity at constant pressure ([1]; 310 K, Liquid): 193 ± 3.3 J/K/mol and 193.1 ± 3.3 J/K/mol; molar heat capacity at constant pressure ([1]; 315 K, Liquid): 197.4 ± 3.4 J/K/mol and 197.6 ± 3.4 J/K/mol; molar heat capacity at constant pressure ([1]; 320 K, Liquid): 201.8 ± 3.5 J/K/mol and 202 ± 3.5 J/K/mol; molar heat capacity at constant pressure ([1]; 325 K, Liquid): 206.2 ± 3.6 J/K/mol and 206.4 ± 3.6 J/K/mol; molar heat capacity at constant pressure ([1]; 330 K, Liquid): 210.5 ± 3.6 J/K/mol and 210.7 ± 3.7 J/K/mol; molar heat capacity at constant pressure ([1]; 335 K, Liquid): 215 ± 3.7 J/K/mol and 215.1 ± 3.7 J/K/mol; molar heat capacity at constant pressure ([1]; 340 K, Liquid): 219.5 ± 3.8 J/K/mol; molar heat capacity at constant pressure ([1]; 345 K, Liquid): 223.8 ± 3.9 J/K/mol and 223.7 ± 3.9 J/K/mol; molar heat capacity at constant pressure ([1]; 350 K, Liquid): 228.1 ± 4 J/K/mol and 228 ± 4 J/K/mol; molar heat capacity at constant pressure ([1]; 354.91 K, Liquid): 232 ± 4 J/K/mol; molar heat capacity at constant pressure ([1]; 355 K, Liquid): 232 ± 4 J/K/mol; molar heat capacity at constant pressure ([1]; 357.78 K, Liquid): 234.1 ± 4.1 J/K/mol

Q: Which “molar heat capacity at constant pressure” value ([1]; 261.42 K, Crystal) does the source give for `OC1CCCCC1` [cyclohexanol] here?
A: The value was 162.6 ± 2.8 J/K/mol.

Q: And the “molar heat capacity at constant pressure” value ([1]; 261.48 K, Crystal)?
A: Its value is 162.8 ± 2.8 J/K/mol.

Q: What about the “molar heat capacity at constant pressure” value ([1]; 264 K, Crystal) of the same compound?
A: The value was 164.5 ± 2.9 J/K/mol and 164.7 ± 2.9 J/K/mol.

Q: And the “molar heat capacity at constant pressure” value ([1]; 267 K, Crystal)?
A: The value was 166.8 ± 2.9 J/K/mol and 167 ± 2.9 J/K/mol.

Q: And the “molar heat capacity at constant pressure” value ([1]; 270 K, Crystal)?
A: Its value is 169.1 ± 2.9 J/K/mol and 169.4 ± 2.9 J/K/mol.

Q: What about the “molar heat capacity at constant pressure” value ([1]; 273 K, Crystal) of the same compound?
A: The value was 171.7 ± 3 J/K/mol and 172 ± 3 J/K/mol.

Q: And the “molar heat capacity at constant pressure” value ([1]; 276 K, Crystal)?
A: Its value is 174.5 ± 3 J/K/mol and 174.9 ± 3 J/K/mol.

Q: What about the “molar heat capacity at constant pressure” value ([1]; 279 K, Crystal) of the same compound?
A: The value was 177.4 ± 3.1 J/K/mol and 177.9 ± 3.1 J/K/mol.

Q: What about the “molar heat capacity at constant pressure” value ([1]; 282 K, Crystal) of the same compound?
A: Its value is 180.8 ± 3.1 J/K/mol and 181.4 ± 3.1 J/K/mol.

Q: And the “molar heat capacity at constant pressure” value ([1]; 284.5 K, Crystal)?
A: Its value is 184.9 ± 3.2 J/K/mol.

Q: What about the “molar heat capacity at constant pressure” value ([1]; 284.95 K, Crystal) of the same compound?
A: The value was 184.8 ± 3.2 J/K/mol.

Q: What about the “molar heat capacity at constant pressure” value ([1]; 305.05 K, Liquid) of the same compound?
A: Its value is 218.3 ± 3.8 J/K/mol.

Q: And the “molar heat capacity at constant pressure” value ([1]; 305.18 K, Liquid)?
A: The value was 218.6 ± 3.8 J/K/mol.

Q: What about the “molar heat capacity at constant pressure” value ([1]; 310 K, Liquid) of the same compound?
A: The value was 223.8 ± 3.9 J/K/mol and 224 ± 3.9 J/K/mol.

Q: And the “molar heat capacity at constant pressure” value ([1]; 315 K, Liquid)?
A: Its value is 229.6 ± 4 J/K/mol and 229.7 ± 4 J/K/mol.

Q: What about the “molar heat capacity at constant pressure” value ([1]; 320 K, Liquid) of the same compound?
A: The value was 235.5 ± 4.1 J/K/mol and 235.3 ± 4.1 J/K/mol.

Q: What about the “molar heat capacity at constant pressure” value ([1]; 325 K, Liquid) of the same compound?
A: Its value is 241.3 ± 4.2 J/K/mol and 241.1 ± 4.2 J/K/mol.

Q: And the “molar heat capacity at constant pressure” value ([1]; 330 K, Liquid)?
A: Its value is 246.7 ± 4.3 J/K/mol and 246.8 ± 4.3 J/K/mol.

Q: And the “molar heat capacity at constant pressure” value ([1]; 335 K, Liquid)?
A: The value was 252 ± 4.4 J/K/mol and 252.2 ± 4.4 J/K/mol.

Q: What about the “molar heat capacity at constant pressure” value ([1]; 340 K, Liquid) of the same compound?
A: Its value is 257.4 ± 4.5 J/K/mol and 257.6 ± 4.5 J/K/mol.

Q: And the “molar heat capacity at constant pressure” value ([1]; 345 K, Liquid)?
A: The value was 262.8 ± 4.6 J/K/mol and 263 ± 4.6 J/K/mol.

Q: And the “molar heat capacity at constant pressure” value ([1]; 350 K, Liquid)?
A: Its value is 268 ± 4.6 J/K/mol.

Q: What about the “molar heat capacity at constant pressure” value ([1]; 355 K, Liquid) of the same compound?
A: Its value is 272.3 ± 4.7 J/K/mol and 272.5 ± 4.7 J/K/mol.

Q: And the “molar heat capacity at constant pressure” value ([1]; 357.82 K, Liquid)?
A: The value was 274.7 ± 4.8 J/K/mol.

Q: What about the “molar heat capacity at constant pressure” value ([1]; 357.94 K, Liquid) of the same compound?
A: The value was 274.7 ± 4.8 J/K/mol.

Q: Which results are given for `OC1CCC1` [cyclobutanol]?
A: Molar enthalpy of transition or fusion [2]: 1.89 ± 0.0884 kcal/mol; Normal melting temperature [3]: -45.61 ± 0.39 °C; molar heat capacity at constant pressure ([1]; 258.09 K, Liquid): 132.4 ± 2.3 J/K/mol and 132.7 ± 2.3 J/K/mol; molar heat capacity at constant pressure ([1]; 263.2 K, Liquid): 134.8 ± 2.3 J/K/mol and 134.7 ± 2.3 J/K/mol; molar heat capacity at constant pressure ([1]; 268.3 K, Liquid): 137 ± 2.4 J/K/mol and 137.2 ± 2.4 J/K/mol; molar heat capacity at constant pressure ([1]; 273.41 K, Liquid): 139.4 ± 2.4 J/K/mol; molar heat capacity at constant pressure ([1]; 278.51 K, Liquid): 141.8 ± 2.5 J/K/mol; molar heat capacity at constant pressure ([1]; 283.62 K, Liquid): 144.6 ± 2.5 J/K/mol and 144.4 ± 2.5 J/K/mol; molar heat capacity at constant pressure ([1]; 288.72 K, Liquid): 147.4 ± 2.6 J/K/mol and 147.3 ± 2.6 J/K/mol; molar heat capacity at constant pressure ([1]; 293.83 K, Liquid): 150.5 ± 2.6 J/K/mol and 150.2 ± 2.6 J/K/mol; molar heat capacity at constant pressure ([1]; 298.93 K, Liquid): 153.7 ± 2.7 J/K/mol and 153.8 ± 2.7 J/K/mol; molar heat capacity at constant pressure ([1]; 304.04 K, Liquid): 157 ± 2.7 J/K/mol and 157.1 ± 2.7 J/K/mol; molar heat capacity at constant pressure ([1]; 309.14 K, Liquid): 160.5 ± 2.8 J/K/mol; molar heat capacity at constant pressure ([1]; 314.25 K, Liquid): 164.1 ± 2.8 J/K/mol and 164 ± 2.8 J/K/mol; molar heat capacity at constant pressure ([1]; 319.35 K, Liquid): 168 ± 2.9 J/K/mol and 167.9 ± 2.9 J/K/mol; molar heat capacity at constant pressure ([1]; 324.46 K, Liquid): 171.9 ± 3 J/K/mol and 171.6 ± 3 J/K/mol; molar heat capacity at constant pressure ([1]; 329.57 K, Liquid): 175.4 ± 3 J/K/mol; molar heat capacity at constant pressure ([1]; 334.67 K, Liquid): 179.4 ± 3.1 J/K/mol; molar heat capacity at constant pressure ([1]; 339.77 K, Liquid): 183.6 ± 3.2 J/K/mol and 183.1 ± 3.2 J/K/mol; molar heat capacity at constant pressure ([1]; 344.88 K, Liquid): 187.5 ± 3.2 J/K/mol and 187 ± 3.2 J/K/mol; molar heat capacity at constant pressure ([1]; 349.98 K, Liquid): 191.6 ± 3.3 J/K/mol; molar heat capacity at constant pressure ([1]; 355.09 K, Liquid): 195.6 ± 3.4 J/K/mol

Q: Which “molar heat capacity at constant pressure” value ([1]; 260.59 K, Crystal) does the source give for `OC1CCCCCC1` [cycloheptanol] here?
A: Its value is 195.3 ± 3.4 J/K/mol.

Q: And the “molar heat capacity at constant pressure” value ([1]; 260.73 K, Crystal)?
A: Its value is 195.4 ± 3.4 J/K/mol.

Q: And the “molar heat capacity at constant pressure” value ([1]; 262 K, Crystal)?
A: The value was 196.4 ± 3.4 J/K/mol and 196.5 ± 3.4 J/K/mol.

Q: And the “molar heat capacity at constant pressure” value ([1]; 264 K, Crystal)?
A: The value was 198 ± 3.4 J/K/mol and 198.1 ± 3.4 J/K/mol.

Q: What about the “molar heat capacity at constant pressure” value ([1]; 266 K, Crystal) of the same compound?
A: Its value is 199.8 ± 3.5 J/K/mol.

Q: And the “molar heat capacity at constant pressure” value ([1]; 268 K, Crystal)?
A: Its value is 201.8 ± 3.5 J/K/mol and 201.7 ± 3.5 J/K/mol.

Q: What about the “molar heat capacity at constant pressure” value ([1]; 270 K, Crystal) of the same compound?
A: The value was 204 ± 3.5 J/K/mol.

Q: What about the “molar heat capacity at constant pressure” value ([1]; 271.34 K, Crystal) of the same compound?
A: The value was 205.2 ± 3.6 J/K/mol.

Q: And the “molar heat capacity at constant pressure” value ([1]; 271.43 K, Crystal)?
A: The value was 205.4 ± 3.6 J/K/mol.

Q: And the “molar heat capacity at constant pressure” value ([1]; 286.01 K, Liquid)?
A: Its value is 236.1 ± 4.1 J/K/mol.

Q: What about the “molar heat capacity at constant pressure” value ([1]; 286.13 K, Liquid) of the same compound?
A: Its value is 236.3 ± 4.1 J/K/mol.

Q: What about the “molar heat capacity at constant pressure” value ([1]; 290 K, Liquid) of the same compound?
A: Its value is 240.6 ± 4.2 J/K/mol.

Q: What about the “molar heat capacity at constant pressure” value ([1]; 295 K, Liquid) of the same compound?
A: Its value is 246.5 ± 4.3 J/K/mol.

Q: And the “molar heat capacity at constant pressure” value ([1]; 300 K, Liquid)?
A: The value was 252.3 ± 4.4 J/K/mol.

Q: And the “molar heat capacity at constant pressure” value ([1]; 305 K, Liquid)?
A: Its value is 258.1 ± 4.5 J/K/mol and 258.2 ± 4.5 J/K/mol.

Q: And the “molar heat capacity at constant pressure” value ([1]; 310 K, Liquid)?
A: The value was 263.8 ± 4.6 J/K/mol.

Q: And the “molar heat capacity at constant pressure” value ([1]; 315 K, Liquid)?
A: The value was 269.4 ± 4.7 J/K/mol and 269.5 ± 4.7 J/K/mol.

Q: What about the “molar heat capacity at constant pressure” value ([1]; 320 K, Liquid) of the same compound?
A: Its value is 274.8 ± 4.8 J/K/mol and 274.9 ± 4.8 J/K/mol.

Q: What about the “molar heat capacity at constant pressure” value ([1]; 325 K, Liquid) of the same compound?
A: Its value is 280.3 ± 4.9 J/K/mol and 280.2 ± 4.9 J/K/mol.

Q: And the “molar heat capacity at constant pressure” value ([1]; 330 K, Liquid)?
A: Its value is 285.3 ± 4.9 J/K/mol and 285.2 ± 4.9 J/K/mol.

Q: What about the “molar heat capacity at constant pressure” value ([1]; 335 K, Liquid) of the same compound?
A: The value was 289.9 ± 5 J/K/mol and 290 ± 5 J/K/mol.

Q: And the “molar heat capacity at constant pressure” value ([1]; 340 K, Liquid)?
A: Its value is 294.4 ± 5.1 J/K/mol.

Q: And the “molar heat capacity at constant pressure” value ([1]; 345 K, Liquid)?
A: Its value is 299.2 ± 5.2 J/K/mol.

Q: And the “molar heat capacity at constant pressure” value ([1]; 350 K, Liquid)?
A: Its value is 303.6 ± 5.3 J/K/mol.

Q: And the “molar heat capacity at constant pressure” value ([1]; 354.82 K, Liquid)?
A: The value was 307.6 ± 5.3 J/K/mol.

Q: And the “molar heat capacity at constant pressure” value ([1]; 355 K, Liquid)?
A: Its value is 307.7 ± 5.3 J/K/mol.

Q: What about the “molar heat capacity at constant pressure” value ([1]; 357.82 K, Liquid) of the same compound?
A: Its value is 309.7 ± 5.4 J/K/mol.
